Source: the NIST ThermoML archive (doi:10.1016/j.fluid.2018.04.012)
Numbers after ± are expanded uncertainties.

Assay: xn = mol fraction of the nth substance listed
Conditions: Liquid, Vibrating tube method

CC(C)OC(C)C [diisopropyl ether] + CC(C)O
mass density [kg/m3]
Conditions | x2 = 0.1503 | x2 = 0.2979 | x2 = 0.4228 | x2 = 0.5 | x2 = 0.6737 | x2 = 0.8483
298.15 K, 100 kPa | 725.5 ± 0.7 | 732.6 ± 0.7 | 739.4 ± 0.7 | 743.7 ± 0.7 | 754.9 ± 0.7 | 768 ± 0.7
298.15 K, 1000 kPa | 726.6 ± 0.7 | 733.6 ± 0.7 | 740.5 ± 0.7 | 744.7 ± 0.7 | 755.8 ± 0.7 | 768.9 ± 0.7
298.15 K, 5000 kPa | 731.3 ± 0.7 | 738.2 ± 0.7 | 744.8 ± 0.7 | 749 ± 0.7 | 759.9 ± 0.7 | 772.6 ± 0.7
298.15 K, 10000 kPa | 736.8 ± 0.7 | 743.6 ± 0.7 | 749.9 ± 0.7 | 754 ± 0.7 | 764.7 ± 0.7 | 777.1 ± 0.7
298.15 K, 15000 kPa | 742.1 ± 0.8 | 748.6 ± 0.8 | 754.6 ± 0.7 | 758.8 ± 0.7 | 769.1 ± 0.7 | 781.3 ± 0.7
298.15 K, 20000 kPa | 746.8 ± 0.8 | 753.2 ± 0.8 | 759.2 ± 0.8 | 763.2 ± 0.8 | 773.4 ± 0.8 | 785.2 ± 0.8
298.15 K, 25000 kPa | 751.4 ± 0.8 | 757.6 ± 0.8 | 763.5 ± 0.8 | 767.5 ± 0.8 | 777.4 ± 0.8 | 789 ± 0.8
298.15 K, 30000 kPa | 755.7 ± 0.8 | 761.9 ± 0.8 | 767.6 ± 0.8 | 771.5 ± 0.8 | 781.2 ± 0.8 | 792.6 ± 0.8
298.15 K, 35000 kPa | 759.7 ± 0.8 | 765.8 ± 0.8 | 771.5 ± 0.8 | 775.2 ± 0.8 | 784.8 ± 0.8 | 796 ± 0.8
298.15 K, 40000 kPa | 763.6 ± 0.8 | 769.6 ± 0.8 | 775.2 ± 0.8 | 778.9 ± 0.8 | 788.3 ± 0.8 | 799.3 ± 0.8
298.15 K, 45000 kPa | 767.4 ± 0.9 | 773.2 ± 0.9 | 778.8 ± 0.8 | 782.4 ± 0.8 | 791.7 ± 0.8 | 802.6 ± 0.8
298.15 K, 50000 kPa | 770.9 ± 0.9 | 776.7 ± 0.9 | 782.2 ± 0.9 | 785.8 ± 0.9 | 794.9 ± 0.8 | 805.6 ± 0.8
298.15 K, 55000 kPa | 774.4 ± 0.9 | 780.1 ± 0.9 | 785.5 ± 0.9 | 789 ± 0.9 | 798.1 ± 0.9 | 808.6 ± 0.8
298.15 K, 60000 kPa | 777.7 ± 0.9 | 783.3 ± 0.9 | 788.7 ± 0.9 | 792.1 ± 0.9 | 801.1 ± 0.9 | 811.5 ± 0.9
298.15 K, 65000 kPa | 780.9 ± 0.9 | 786.5 ± 0.9 | 791.8 ± 0.9 | 795.2 ± 0.9 | 804 ± 0.9 | 814.3 ± 0.9
298.15 K, 70000 kPa | 784 ± 1 | 789.5 ± 1 | 794.8 ± 0.9 | 798.2 ± 0.9 | 806.8 ± 0.9 | 817.1 ± 0.9
298.15 K, 80000 kPa | 789.9 ± 1 | 795.3 ± 1 | 800.5 ± 1 | 803.8 ± 1 | 812.3 ± 0.9 | 822.3 ± 0.9
298.15 K, 90000 kPa | 795.6 ± 1 | 800.8 ± 1 | 805.9 ± 1 | 809.1 ± 1 | 817.5 ± 1 | 827.3 ± 1
298.15 K, 100000 kPa | 800.8 ± 1.1 | 806 ± 1.1 | 810.9 ± 1 | 814.2 ± 1 | 822.4 ± 1 | 832 ± 1
298.15 K, 110000 kPa | 805.8 ± 1.1 | 811 ± 1.1 | 815.8 ± 1.1 | 818.9 ± 1.1 | 827.1 ± 1 | 836.6 ± 1
298.15 K, 120000 kPa | 810.5 ± 1.2 | 815.6 ± 1.1 | 820.4 ± 1.1 | 823.5 ± 1.1 | 831.5 ± 1.1 | 840.8 ± 1
298.15 K, 130000 kPa | 815.1 ± 1.2 | 820.1 ± 1.2 | 824.8 ± 1.2 | 827.9 ± 1.1 | 835.7 ± 1.1 | 844.9 ± 1.1
298.15 K, 140000 kPa | 819.5 ± 1.2 | 824.4 ± 1.2 | 829 ± 1.2 | 832.1 ± 1.2 | 839.8 ± 1.1 | 848.9 ± 1.1
313.15 K, 100 kPa | 709.6 ± 0.7 | 716.9 ± 0.7 | 724 ± 0.7 | 728.5 ± 0.7 | 740.2 ± 0.7 | 754 ± 0.7
313.15 K, 1000 kPa | 710.8 ± 0.7 | 718.1 ± 0.7 | 725.1 ± 0.7 | 729.6 ± 0.7 | 741.3 ± 0.7 | 755 ± 0.7
313.15 K, 5000 kPa | 716.3 ± 0.7 | 723.3 ± 0.7 | 730 ± 0.7 | 734.4 ± 0.7 | 745.9 ± 0.7 | 759.2 ± 0.7
313.15 K, 10000 kPa | 722.4 ± 0.7 | 729.3 ± 0.7 | 735.7 ± 0.7 | 740.1 ± 0.7 | 751.1 ± 0.7 | 764.1 ± 0.7
313.15 K, 15000 kPa | 728.1 ± 0.8 | 734.8 ± 0.8 | 741 ± 0.8 | 745.3 ± 0.8 | 756 ± 0.7 | 768.7 ± 0.7
313.15 K, 20000 kPa | 733.4 ± 0.8 | 739.9 ± 0.8 | 746 ± 0.8 | 750.2 ± 0.8 | 760.7 ± 0.8 | 773 ± 0.8
313.15 K, 25000 kPa | 738.2 ± 0.8 | 744.6 ± 0.8 | 750.7 ± 0.8 | 754.6 ± 0.8 | 764.8 ± 0.8 | 776.9 ± 0.8
313.15 K, 30000 kPa | 743.1 ± 0.8 | 749.4 ± 0.8 | 755.1 ± 0.8 | 759.2 ± 0.8 | 769.2 ± 0.8 | 781 ± 0.8
313.15 K, 35000 kPa | 747.6 ± 0.8 | 753.6 ± 0.8 | 759.3 ± 0.8 | 763.3 ± 0.8 | 773.1 ± 0.8 | 784.7 ± 0.8
313.15 K, 40000 kPa | 751.7 ± 0.9 | 757.7 ± 0.8 | 763.4 ± 0.8 | 767.2 ± 0.8 | 776.8 ± 0.8 | 788.2 ± 0.8
313.15 K, 45000 kPa | 755.7 ± 0.9 | 761.6 ± 0.9 | 767.2 ± 0.9 | 770.9 ± 0.9 | – | –
